Like-named read-outs stand apart in the source and are kept apart here.
How the values were obtained:
[1] = tested on: STAT3 phosphorylation (Y705); assay: Western blot of STAT3 phosphorylation in medulloblastoma cells; type: cell-based, human
From the text: (§1) Cells was harvested and extracted using cell lysis buffer (Cell Signaling) supplemented with phosphatase and protease inhibitors. Tumors from mice were grinded in the liquid nitrogen, and extracted proteins using cell lysis buffer supplemented with phosphatase and protease inhibitors. Extracted protein samples were separated by 10% SDS-PAGE and transferred to polyvinylidene difluoride membranes. After blocking with TBS-T buffer containing 5% skim milk (Lab Scientific Inc) at room temperature for 1 h, each membrane was incubated at 4 °C overnight with one of the following primary antibodies at 1:1,000 dilution: rabbit anti-phosphorylated STAT3 (Y705), rabbit anti-STAT3, rabbit anti-phosphorylated STAT1 (Y701), rabbit anti-STAT1, rabbit anti-Cyclin D1, rabbit anti-Survivin, and rabbit anti-GAPDH. Subsequently, each membrane was washed with TBS-T and incubated with horseradish peroxidase-conjugated secondary antibody (1:10,000) at room temperature for 1.5 h. Proteins of interest were visualized using SUPERSIGNAL West Femto Maximum Sensitivity Substrate (Thermo, #34096). Quantification was performed using ImageJ.

[2] = tested on: D425 medulloblastoma cells; assay: Tumorsphere formation, D425; type: cell-based, human; conditions: LLL12B 0.5 and 1 μM and/or cisplatin 0.5 and 1 μM, 8 days
Protocol: (§2) Cells were seeded (10,000 cells/mL) in ultra-low attachment 6-wells plates and treated with different concentrations of LLL12B and/or cisplatin or DMSO alone for 8 days. One-half of the culture volume of fresh 3D Tumorsphere Medium XF was added every 4 days. Images were captured on a Nikon Eclipse TS100 microscope. Original magnification, × 10.

[3] = tested on: D283 medulloblastoma cells; assay: Tumorsphere formation, D283; type: cell-based, human; conditions: LLL12B 0.5 and 1 μM and/or cisplatin 0.5 and 1 μM, 8 days
Protocol: as §2

[4] = tested on: D425 medulloblastoma cells; assay: MTT cell viability assay, D425; type: cell-based, human; conditions: 0.5 μM, 48 h, siRNA transfection experiment
Protocol: SignalSilence STAT3 siRNA I was purchased from Cell Signaling (#6580) and medulloblastoma cells were transfected using Lipofectamine 2000 reagent (Invitrogen). The sequence of STAT3 siRNA: GGUCCCUCAUCCUGUUUGU, ACAAACAGGAUGAGGGACC. AMBION SILENCER Negative Control siRNA (#AM4611) was purchased from Invitrogen. Cells were seeded in 96-well plates (8,000 cells/well) and allowed to adhere overnight. siRNA and Lipofectamine 2000 were diluted at 1:50 in Opti-MEM medium respectively. Gently mixed and incubated at room temperature for 5 min, and then the diluted siRNA was added to the diluted Lipofectamine 2000 reagent (1:1 ratio) with an additional incubation of 25 min. The final concentration of siRNA was 100 nM. After that, culture medium was replaced by Lipofectamine 2000 reagent: siRNA complexes and cultured for 24 h. After transfection, cells were treated with LLL12B or DMSO only for 48 h, and then cell viability was measured by MTT assay.
Cells were seeded in 96-well plates at a density of 3,000 cells. After overnight attachment, cells were treated with different concentrations of LLL12B and/or cisplatin or DMSO alone. After 72 h treatment, 20 μL of MTT solution was added for 4 h of additional culture, and then 150 μL of DMF solubilization solution was added with shaking overnight in the dark. Absorbance was measured at 595 nm. Combination index (CI) was calculated using ComuSyn software. […]

P-ERK = assay: Western blot of P-ERK in medulloblastoma cells; type: cell-based, human; conditions: 0.5 to 2.5 μM, 4 or 8 h
[5] = tested on: D283 medulloblastoma xenografts; assay: D283 tumor xenograft model in nude mice; type: in vivo; conditions: for STAT3 phosphorylation in tumors: Western blot, LLL12B 2.5 mg/kg and/or cisplatin 5 mg/kg
Protocol: (§3) All animal studies were carried out in accordance with the standard procedures approved by the Institutional Animal Care and Use Committee (IACUC) of University of Maryland School of Medicine and University of Florida respectively. Furthermore, our animal studies were performed in compliance with the ARRIVE guidelines. Cells (1 × 10^7 cells/sites) were suspended in PBS mixed with matrigel (1:1, Corning, # 354234) and injected subcutaneously into the flank region of 4 to 5 week-old female athymic nude mice (Envigo). When the volume of the tumors reached approximately 100 mm^3, mice were randomized into four groups: (1) LLL12B (2.5 mg/kg) treated orally once daily only, (2) cisplatin (5 mg/kg) intraperitoneal injection treated once every four days only, (3) combination of LLL12B (2.5 mg/kg) oral once daily and cisplatin (5 mg/kg) intraperitoneal injection once every four days and (4) vehicle only once daily. Tumor growth was determined by measuring the minor (W) and major (L) diameter once every other day with a caliper, and calculated according to the following equation: tumor volume = 0.5236 × L × W^2. Body weight and clinical signs were monitored once every other day. In vivo PK studies in mice were performed by Dr. Chenglong Li’s laboratory at the University of Florida.
Figure 6 LLL12B suppressed tumor growth in medulloblastoma xenografts. (A) Tumor volume, (B) Tumor weights. (C) Tumor samples. (D) Body weights. (E) Western blot of tumor samples. The protein expression levels of P-STAT3(Y705), STAT3, and GAPDH. D283 cells (1 × 10^7 cells/tumor) were harvested and suspended in PBS and then implanted subcutaneously with matrigel (1:1 ratio) into the flank region of 4 to 5 week-old female athymic nude mice. Mice were randomized into three groups (6 mice for each group) and treated with LLL12B (2.5 mg/kg or 5 mg/kg, oral gavage, once daily).
Figure 9 LLL12B and cisplatin combination suppressed tumor growth in D283 medulloblastoma xenografts. (A) Tumor volumes. (B) Tumor weights. (C) Body weight. (D) Western blots to analyze protein expression in the representative tumor samples. Expression levels of p-STAT3(Y705), STAT3, CyclinD1, Survivin, and GAPDH. D283 medulloblastoma cells (1 × 10^7 cells/tumor) were implanted subcutaneously into the flank region of 4 to 5 week-old female athymic nude mice. Mice were randomized into four groups (5 mice for each group) and treated with LLL12B (2.5 mg/kg, oral gavage, once daily) and/or cisplatin (5 mg/kg, intraperitoneal injection, once every 4 days) or vehicle alone.

[6] = tested on: INF-γ stimulated STAT1 phosphorylation; assay: INF-γ induced P-STAT1 in DaoY cells (Western blot); type: cell-based, human; conditions: 1 and 2.5 μM for 4 h, then INF-γ 50 ng/mL 30 min
From the text: as §1
(§4) To verify the selective toxicity of LLL12B, DaoY human medulloblastoma cell line was used and treated with LLL12B (1 and 2.5 μM) or DMSO for 4 h followed by induction of IL-6 or INF-γ (50 ng/mL) for 30 min. […]

Cyclin D1 and Survivin = assay: Western blot of STAT3 downstream targets in medulloblastoma cells; type: cell-based, human; conditions: D283, D425, UW426, UW288 cells; 0.5 to 2.5 μM, 16 h
From the text: as §1

P-AKT = assay: Western blot of P-AKT in medulloblastoma cells; type: cell-based, human; conditions: 4 or 8 h
[7] = tested on: D425 medulloblastoma cells; assay: Pilot orthotopic tumor model in vivo; parameters: species or system mice
[8] = tested on: IL-6 induced phosphorylation of STAT3; assay: IL-6 stimulated P-STAT3 in DaoY cells (Western blot); type: cell-based, human; conditions: 1 and 2.5 μM for 4 h, then IL-6 50 ng/mL 30 min
From the text: as §1, §4

active caspase-3/7 = assay: Apoptosis assay (Caspase-3/7 Fluorescence Assay Kit); type: cell-based, human; conditions: D425, D283, UW426 cells; LLL12B 1 μM, cisplatin 2.5 μM, 5 h
Protocol: Cells were plated in 96-well plates (8000–12,000 cells/well) and allowed to adhere overnight. Cells were treated with LLL12B or DMSO only. After 5 h treatment, active caspase-3/7 were measured using Caspase-3/7 Fluorescence Assay Kit (Cayman, Ann Arbor, MI) according to the manufacture’s instruction. Briefly, cells were centrifuged in the plate (800 g, 5 min) and the culture medium was aspirated, and then 200 µL of assay buffer was added to each well to wash the cells and the supernatant was removed after centrifuge. After that, 100 µL of cell-based assay lysis buffer was added to each well with shaking for 30 min at room temperature. Subsequently, 90 µL of the supernatant from each well was transferred to a corresponding well in a new black 96-well plate and 10 µL of assay buffer was added to appropriate wells. The plate was incubated at 37 °C for 90 min followed by addition of 100 µL of the caspase-3/7 substrate solution. Finally, the fluorescence intensity of each well was read at excitation 485 nm and emission 535 nm. All treatments were performed in triplicate.

[9] = In vivo pharmacokinetics (PK) in mice dosed PO
[10] = tested on: D425 medulloblastoma xenografts; assay: D425 tumor xenograft model in nude mice; type: in vivo; conditions: for STAT3 phosphorylation in tumors: Western blot, LLL12B 2.5 mg/kg and/or cisplatin 5 mg/kg
Protocol: as §3
Figure 10 Anti-neoplastic activity of LLL12B and cisplatin combined treatment of D425 medulloblastoma xenografts. (A) Tumor volumes. (B) Tumor weights. (C) Body weights. (D) Protein analysis of the representative tumor samples by western blots. Expression levels of p-STAT3 (Y705), STAT3, CyclinD1, Survivin, and GAPDH. D245 medulloblastoma cells (1 × 10^7 cells/tumor) were implanted subcutaneously into the flank region of 4 to 5 week-old female athymic nude mice. Mice were randomized into four groups (5 mice for each group) and treated with LLL12B (2.5 mg/kg, oral gavage, once daily) and/or cisplatin (5 mg/kg, intraperitoneal injection, once every 4 days) or vehicle alone.

STAT3 protein = tested on: STAT3 protein; parameters: method as in PMID 32412740; conditions: intact MCF-7 breast cancer cells; cited from earlier work
[11] = LLL12B 2.5 mg/kg oral daily and/or cisplatin 5 mg/kg ip every 4 days

## CN(C)C(=O)Oc1cccc2c1C(=O)c1cccc(S(N)(=O)=O)c1C2=O [LLL12B]
[1]; D283, D425, UW426, UW288 cells, 0.5 to 2.5 μM, 16 h
  STAT3 phosphorylation (Y705): dose-dependently suppressed
[1]; UW426, UW288, D283 cells, 0.5, 1.0, 2.5 μM, 4 and 8 h
  P-STAT3 levels: significantly reduced
[2]
  tumorsphere formation: numbers and sizes of tumorspheres decreased
[3]
  tumorsphere formation: numbers and sizes of tumorspheres decreased
[4]
  cell viability: could impede cell viability
P-ERK; D283 cells
  P-ERK: did not generally inhibit
P-ERK; UW288 cells
  P-ERK: some inhibition
P-ERK; UW426 cells
  P-ERK: induced
[5]; 2.5 mg/kg oral gavage once daily
  suppression of tumor growth and tumor weights vs vehicle: ~ 40%
[5]; 5 mg/kg oral gavage once daily
  suppression of tumor growth and tumor weights vs vehicle: ~ 75%
[5]; 2.5 or 5 mg/kg oral gavage once daily
  body weight of mice: no significant impact
[5]; 2.5 or 5 mg/kg oral, Western blot vs vehicle
  P-STAT3(Y705) level in tumors: dose-dependently down-regulated
[5]; [11]
  body weights: little effect
[5]
  STAT3 phosphorylation in tumors: reduced
[6]
  induction of phosphorylated STAT1 protein by INF-γ: without affecting
Cyclin D1 and Survivin
  expression of Cyclin D1 and Survivin: downregulated
P-AKT; D283 cells, 0.5 to 2.5 μM
  P-AKT: induced
P-AKT; UW288 cells, 0.5 to 2.5 μM
  P-AKT: some inhibition
P-AKT; UW426 cells, 2.5 μM
  P-AKT: bound back
P-AKT; UW426 cells, 0.5 and 1.0 μM
  P-AKT: reduced
[7]
  survival of mice with tumors: limited extension of the survival
[8]
  IL-6 induced phosphorylation of STAT3: significantly inhibited
Active caspase-3/7
  caspase-3/7 activation (apoptosis): increased
[9]; LLL12B 8 mg/kg vs LLL12 20 mg/kg
  Cmax compared to LLL12: more than doubled
[9]; mouse, in vivo, 8 mg/kg
  AUC: 1.36 µM·h
  Cmax: 278 nM
[9]; mouse, in vivo, 8 mg/kg, read-out: Bioavailability (F)
  bioavailability: 47.7%
[9]; mouse, in vivo, po, 8 mg/kg, one time 8 mg/kg, read-out: oral Tmax
  Tmax: ~8 h
[9]; mouse, in vivo, po, 8 mg/kg, read-out: Tmax
  Tmax: 7.68 h
[10]; [11]
  body weights: little effect
[10]
  STAT3 phosphorylation in tumors: reduced

## NS(=O)(=O)c1cccc2c1C(=O)c1cccc(O)c1C2=O [LLL12]
[7]; vehicle 19 days
  survival (average): 24 days
STAT3 protein
  binding to STAT3 protein in intact cells: binds to STAT3 protein
[9]; 20 mg/kg
  AUCall: 0.0407 µM·h
  Bioavailability (F): 2.73%
  Cmax: 176 nM
  Tmax: 0.083 h
[9]; one time 20 mg/kg
  oral Tmax: 5 min

## N.N.[Cl][Pt][Cl] [cisplatin]
[5]
  STAT3 phosphorylation in tumors: reduce or partially reduce
Active caspase-3/7
  caspase-3/7 activation (apoptosis): increased
[10]
  STAT3 phosphorylation in tumors: reduce or partially reduce
